According to patent publication US11884647B2, “Compounds and methods for targeting pathogenic blood vessels” (THE REGENTS OF THE UNIVERSITY OF CALIFORNIA, priority 2019, dated 2024):

Tests used:
[1] = test system: tumor endothelial cells (LL/2 lung cancer tumor); assay: Lung LL2 ex vivo model of tumor angiogenesis; format: cell-based, mouse; settings: for cytotoxicity at 20 µM / cytotoxicity at 40 µM: Mus musculus, Endothelial cell, 48 h, read-out: Cell death; for Cell death: drug treatment two days
Procedure, shortened: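 Read-out is live/dead fluorescence imaging (fluorescein diacetate green, propidium iodide red, 10 min at 37° C) at 2×, taken e.g. 48 h after drug addition. Fragments of mouse LL2 tumor are cultured in Matrigel with endothelial growth medium, usually 4 days, until new endothelial cells grow out, then treated.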

[2] = test system: tumor endothelial cells (CT26.CL25 colon cancer tumor); assay: Colon CT26 ex vivo model of tumor angiogenesis; format: cell-based; settings: Mus musculus, CT26, 48 h, read-out: Cell death
Description: This example describes a procedure to prepare a primary tumor angiogenesis model for assessing the efficacy of anti-cancer candidate agents.
1. The day before the experiment, spray all necessary tools with 70% ethanol and sterilize them under UV light overnight, including blade, dissecting and micro-dissecting scissors and […]. Place 24-well dishes at 4° C. to pre-chill plates and thaw Matrigel 24 hours before tumor dissection.
2. Spray 70% ethanol on working bench. Prepare two sterile petri dishes with 10 mL sterile PBS. Steps 3 and 4 are for mouse tumor models. For fresh human tumor, directly go to step 5.
3. Euthanize the tumor-bearing mice. Spray 70% ethanol on the mouse and remove the tumor using sterilized dissecting tools (avoid the fur). Rinse the tumor in petri dish with sterile PBS to remove ethanol and fur. Transfer the tumor to a new petri dish with PBS for dissection. Place the dish on ice.
4. Using pre-chilled sterile pipet tips to seed regular Matrigel in 24 well plates on ice. Matrigel (30 μL) is dropped in the middle of each well without touching the edge of the well (avoid introducing bubbles if possible).
5. Cut the tumor in halves using the sterile blade. Identify and isolate healthy tumor tissue that is not necrotic and is within the tumor capsule. Cut the healthy tumor tissue into small pieces. For instance, a suitable size for the tumor tissue is 0.5 mm (H)×0.5 mm (L)×0.3 mm (D) with a total volume of 0.075 mm^3.
6. Gently transfer and embed each tumor piece in the Matrigel drop in the 24-well plate. Place the embedded piece in the bottom and middle of each Matrigel drop. Keep the plate on ice all the time.
7. After seeding the tumor pieces, plates are incubated in a 37° C. cell culture incubator without medium for 10 minutes in order for the Matrigel to solidify.
8. Endothelial Growth Medium (0.5 mL) is added to each well and incubated at 37° C. with 5% CO2. Wait until the new endothelial cells have grown out of the tumor or are larger than 3 mm in diameter until treatment. This usually takes 4 days for the LL2 Lewis lung cancer model and 7 days for the CT26 colon cancer model. For human tumor models, the growth time is typically 2-3 weeks, depending on the tumor type. Media is changed every 4 days during prolonged culture. Typically, when the tumor tissue grows to 2 mm in diameter, it is good for drug testing. A size of about 3 mm in diameter can make visualization easier.
9. When the assay is ready to be analyzed for cell death (e.g., 48 hours after drug addition), prepare the dye mixture by mixing 6 μL of green dye to stain live cells (5 mg/mL Fluorescein diacetate or FDA in DMSO) with 30 μL of red dye (2.5 mg/mL Propidium iodide or PI in PBS) to stain dead cells in an Eppendorf tube. The FDA dye needs to be stored frozen in a −20° C. freezer because it has a labile ester bond.
10. Add 1 μL of the dye mixture to each well of the 24-well dish. It is usually performed one 24-well dish at a time given the amount of time needed to take pictures (the green dye is not as stable in the cells in the long term).
11. Gently rock the dish a few times to mix the dye with the media in the wells and incubate the dish at 37° C. for 10 min (too long incubation can make the green signal too intense).
12. Wash each well with 0.5 mL of sterile PBS and then add 0.5 mL of phenol red free SFM to each well. Alternatively 0.5 mL of regular Endothelial Cell Growth Media can be added to each well if this well needs to be continuously maintained after the experiment.
13. Look through all wells on an inverted microscope using the 2× objective lens to observe morphological changes.
14. Taking pictures in the red and green channels would allow not only the recording of the result but also more accurate quantitation of the result. To take pictures for all the wells, first pick a well that has robust red and green signals. […]

Compound | cytotoxicity at 40 µM [1] | cytotoxicity at 40 µM [2] | also measured
CCCCCCCOc1ccc(S(=O)(=O)c2cnc3ccc([S+](C)[O-])cc3c2N2CCC(N3CCCN(C)CC3)CC2)cc1 (centres unmarked) [compound 256, 3-((4-(heptyloxy)phenyl)sulfonyl)-4-(4-(4-methyl-1,4-diazepan-1-yl)piperidin-1-yl)-6-(methylsulfinyl)quinoline] | – | – | cytotoxicity at 20 µM [1]: 100%; cytotoxicity at 10 µM [2]: 90%
CCOC(=O)c1ccc2ncc(S(=O)(=O)c3ccc(CC)cc3)c(N3CCC(N4CCCCC4)CC3)c2c1 [compound 64, ethyl 4-([1,4′-bipiperidin]-1′-yl)-3-((4-ethylphenyl)sulfonyl)quinoline-6-carboxylate] | 100% | 100% | –
COc1ccc(S(=O)(=O)c2cnc3ccc(OC(F)(F)F)cc3c2-n2cncn2)cc1 [compound 86, 3-((4-methoxyphenyl)sulfonyl)-4-(1H-1,2,4-triazol-1-yl)-6-(trifluoromethoxy)quinoline] | – | – | cytotoxicity at 20 µM [1]: 100%; cytotoxicity at 10 µM [2]: 100%
CCCCOc1ccc(S(=O)(=O)c2cnc3ccc(OC(F)(F)F)cc3c2-n2cncn2)cc1 [compound 93, 3-((4-butoxyphenyl)sulfonyl)-4-(1H-1,2,4-triazol-1-yl)-6-(trifluoromethoxy)quinoline] | – | – | cytotoxicity at 20 µM [1]: 100%; cytotoxicity at 10 µM [2]: 100%
COc1ccc(S(=O)(=O)c2cnc3ccc(SC)cc3c2N2CCCN(C)CC2)cc1OC [compound 154, 3-((3,4-dimethoxyphenyl)sulfonyl)-4-(4-methyl-1,4-diazepan-1-yl)-6-(methylthio)quinoline] | 30% | 30% | –
COc1ccc(S(=O)(=O)c2cnc3ccc(OC(F)(F)F)cc3c2N2CCC(N3CCCCC3)CC2)cc1OC [compound 56, 4-([1,4′-bipiperidin]-1′-yl)-3-((3,4-dimethoxyphenyl)sulfonyl)-6-(trifluoromethoxy)quinoline] | 20% | 30% | –
CCCCOc1ccc(S(=O)(=O)c2cnc3ccc(C(=O)OCC)cc3c2N2CCC(N3CCCN(C)CC3)CC2)cc1 [compound 211, ethyl 3-((4-butoxyphenyl)sulfonyl)-4-(4-(4-methyl-1,4-diazepan-1-yl)piperidin-1-yl)quinoline-6-carboxylate] | 100% | 100% | –
O=S(=O)(c1ccc(OC(F)(F)F)cc1)c1cnc2ccc(OC(F)(F)F)cc2c1-n1cncn1 [compound 91, 4-(1H-1,2,4-triazol-1-yl)-6-(trifluoromethoxy)-3-((4-(trifluoromethoxy)phenyl)sulfonyl)quinoline] | – | – | Cell death ([1]; Lung LL2 ex vivo, Conc. 20 μm): 80%; cytotoxicity at 10 µM [2]: 100%
CCCCOc1ccc(S(=O)(=O)c2cnc3ccc(OC(F)(F)F)cc3c2NN2CCN(C)CC2)cc1 [compound 92, 3-((4-butoxyphenyl)sulfonyl)-N-(4-methylpiperazin-1-yl)-6-(trifluoromethoxy)quinolin-4-amine] | – | 0% | cytotoxicity at 20 µM [1]: 10%
CCCCCCCOc1ccc(S(=O)(=O)c2cnc3ccc([S+](C)[O-])cc3c2N2CCC(N3CCC(N4CCCCC4)CC3)CC2)cc1 (centres unmarked) [compound 258, 4-([1,4′:1′,4″-terpiperidin]-1″-yl)-3-((4-(heptyloxy)phenyl)sulfonyl)-6-(methylsulfinyl)quinoline] | – | – | cytotoxicity at 20 µM [1]: 100%; cytotoxicity at 10 µM [2]: 100%
COc1ccc(S(=O)(=O)c2cnc3ccc(OC(F)(F)F)cc3c2NCCO)cc1OC [compound 69, 2-((3-((3,4-dimethoxyphenyl)sulfonyl)-6-(trifluoromethoxy)quinolin-4-yl)amino)ethan-1-ol] | – | 0% | 48 hrs (morphology observations after 48 hours) ([1]; Lung LL2 ex vivo, Conc. 40 μm, 48 hrs): 0; Cell death ([1]; Lung LL2 ex vivo, Conc. 40 μm): 20%
CCc1ccc(S(=O)(=O)c2cnc3ccc(C(=O)O)cc3c2N2CCC(N3CCCCC3)CC2)cc1 [compound 67, 4-([1,4′-bipiperidin]-1′-yl)-3-((4-ethylphenyl)sulfonyl)quinoline-6-carboxylic acid] | 10% | 0% | –
CCCCCCCOc1ccc(S(=O)(=O)c2cnc3ccc([S+](C)[O-])cc3c2N2CCCN(C)CC2)cc1 (centres unmarked) [compound 220, 3-((4-(heptyloxy)phenyl)sulfonyl)-4-(4-methyl-1,4-diazepan-1-yl)-6-(methylsulfinyl)quinoline] | 100% | 100% | –
CCc1ccc(S(=O)(=O)c2cnc3ccc(C(=O)O)cc3c2N2CCCN(C)CC2)cc1 [compound 66, 3-((4-ethylphenyl)sulfonyl)-4-(4-methyl-1,4-diazepan-1-yl)quinoline-6-carboxylic acid] | 10% | 0% | –
CCCCOc1ccc(S(=O)(=O)c2cnc3ccc(SC)cc3c2N2CCC(N3CCCCC3)CC2)cc1 [compound 159, 4-([1,4′-bipiperidin]-1′-yl)-3-((4-butoxyphenyl)sulfonyl)-6-(methylthio)quinoline] | 100% | 100% | –
CCc1ccc(S(=O)(=O)c2cnc3ccc([N+](=O)[O-])cc3c2N2CCC(O)CC2)cc1 [compound 75, 1-(3-((4-ethylphenyl)sulfonyl)-6-nitroquinolin-4-yl)piperidin-4-ol] | 80% | 0% | –
COc1ccc(S(=O)(=O)c2cnc3ccc(CC#N)cc3c2NN2CCN(C)CC2)cc1 [compound 99, 2-(3-((4-methoxyphenyl)sulfonyl)-4-((4-methylpiperazin-1-yl)amino)quinolin-6-yl)acetonitrile] | 10% | 0% | –
CCOC(=O)c1ccc2ncc(S(=O)(=O)c3ccc(OC)cc3)c(N3CCC(OCCN(CC)CC)CC3)c2c1 [compound 140, ethyl 4-(4-(2-(diethylamino)ethoxy)piperidin-1-yl)-3-((4-methoxyphenyl)sulfonyl)quinoline-6-carboxylate] | – | 60% | –
CCCCOc1ccc(S(=O)(=O)c2cnc3ccc(SC)cc3c2N2CCCN(CCN3CCCC3)CC2)cc1 [compound 207, 3-((4-butoxyphenyl)sulfonyl)-6-(methylthio)-4-(4-(2-(pyrrolidin-1-yl)ethyl)-1,4-diazepan-1-yl)quinoline] | – | 100% | –
CCOC(=O)c1ccc2ncc(S(=O)(=O)c3ccc(CC)cc3)c(N3CCC(N4CCC(O)CC4)CC3)c2c1 [compound 130, ethyl 3-((4-ethylphenyl)sulfonyl)-4-(4-hydroxy-[1,4′-bipiperidin]-1′-yl)quinoline-6-carboxylate] | – | 40% | –
CCOC(=O)c1ccc2ncc(S(=O)(=O)c3ccc(CC)cc3)c(N3CCC(O)(c4ccc(OC)cc4)CC3)c2c1 [compound 148, ethyl 3-((4-ethylphenyl)sulfonyl)-4-(4-hydroxy-4-(4-methoxyphenyl)piperidin-1-yl)quinoline-6-carboxylate] | – | 0% | –
CCOC(=O)c1ccc2ncc(S(=O)(=O)c3ccc(CC)cc3)c(N3CCC(OCCN(CC)CC)CC3)c2c1 [compound 132, ethyl 4-(4-(2-(diethylamino)ethoxy)piperidin-1-yl)-3-((4-ethylphenyl)sulfonyl)quinoline-6-carboxylate] | – | 40% | –
CCOC(=O)c1ccc2ncc(S(=O)(=O)c3ccc(OC)cc3)c(N3CCCN(CCN(CC)CC)CC3)c2c1 [compound 139, ethyl 4-(4-(2-(diethylamino)ethyl)-1,4-diazepan-1-yl)-3-((4-methoxyphenyl)sulfonyl)quinoline-6-carboxylate] | – | 40% | –
